Results taken from BindingDB's records for doi:10.1021/jm051030l (University of Pittsburgh, 2006).
Where a name gives a salt, the structure may show the parent alone.

Target: Cytoplasmic dynein 1 heavy chain 1 (Rattus norvegicus, UniProt P38650)
Experiment: Inhibition of MT-stimulated ATPase activity of rat cytoplasmic dynein heavy chain motor domain

Sequence of Cytoplasmic dynein 1 heavy chain 1 (P38650 whole entry, the tested form may be a part): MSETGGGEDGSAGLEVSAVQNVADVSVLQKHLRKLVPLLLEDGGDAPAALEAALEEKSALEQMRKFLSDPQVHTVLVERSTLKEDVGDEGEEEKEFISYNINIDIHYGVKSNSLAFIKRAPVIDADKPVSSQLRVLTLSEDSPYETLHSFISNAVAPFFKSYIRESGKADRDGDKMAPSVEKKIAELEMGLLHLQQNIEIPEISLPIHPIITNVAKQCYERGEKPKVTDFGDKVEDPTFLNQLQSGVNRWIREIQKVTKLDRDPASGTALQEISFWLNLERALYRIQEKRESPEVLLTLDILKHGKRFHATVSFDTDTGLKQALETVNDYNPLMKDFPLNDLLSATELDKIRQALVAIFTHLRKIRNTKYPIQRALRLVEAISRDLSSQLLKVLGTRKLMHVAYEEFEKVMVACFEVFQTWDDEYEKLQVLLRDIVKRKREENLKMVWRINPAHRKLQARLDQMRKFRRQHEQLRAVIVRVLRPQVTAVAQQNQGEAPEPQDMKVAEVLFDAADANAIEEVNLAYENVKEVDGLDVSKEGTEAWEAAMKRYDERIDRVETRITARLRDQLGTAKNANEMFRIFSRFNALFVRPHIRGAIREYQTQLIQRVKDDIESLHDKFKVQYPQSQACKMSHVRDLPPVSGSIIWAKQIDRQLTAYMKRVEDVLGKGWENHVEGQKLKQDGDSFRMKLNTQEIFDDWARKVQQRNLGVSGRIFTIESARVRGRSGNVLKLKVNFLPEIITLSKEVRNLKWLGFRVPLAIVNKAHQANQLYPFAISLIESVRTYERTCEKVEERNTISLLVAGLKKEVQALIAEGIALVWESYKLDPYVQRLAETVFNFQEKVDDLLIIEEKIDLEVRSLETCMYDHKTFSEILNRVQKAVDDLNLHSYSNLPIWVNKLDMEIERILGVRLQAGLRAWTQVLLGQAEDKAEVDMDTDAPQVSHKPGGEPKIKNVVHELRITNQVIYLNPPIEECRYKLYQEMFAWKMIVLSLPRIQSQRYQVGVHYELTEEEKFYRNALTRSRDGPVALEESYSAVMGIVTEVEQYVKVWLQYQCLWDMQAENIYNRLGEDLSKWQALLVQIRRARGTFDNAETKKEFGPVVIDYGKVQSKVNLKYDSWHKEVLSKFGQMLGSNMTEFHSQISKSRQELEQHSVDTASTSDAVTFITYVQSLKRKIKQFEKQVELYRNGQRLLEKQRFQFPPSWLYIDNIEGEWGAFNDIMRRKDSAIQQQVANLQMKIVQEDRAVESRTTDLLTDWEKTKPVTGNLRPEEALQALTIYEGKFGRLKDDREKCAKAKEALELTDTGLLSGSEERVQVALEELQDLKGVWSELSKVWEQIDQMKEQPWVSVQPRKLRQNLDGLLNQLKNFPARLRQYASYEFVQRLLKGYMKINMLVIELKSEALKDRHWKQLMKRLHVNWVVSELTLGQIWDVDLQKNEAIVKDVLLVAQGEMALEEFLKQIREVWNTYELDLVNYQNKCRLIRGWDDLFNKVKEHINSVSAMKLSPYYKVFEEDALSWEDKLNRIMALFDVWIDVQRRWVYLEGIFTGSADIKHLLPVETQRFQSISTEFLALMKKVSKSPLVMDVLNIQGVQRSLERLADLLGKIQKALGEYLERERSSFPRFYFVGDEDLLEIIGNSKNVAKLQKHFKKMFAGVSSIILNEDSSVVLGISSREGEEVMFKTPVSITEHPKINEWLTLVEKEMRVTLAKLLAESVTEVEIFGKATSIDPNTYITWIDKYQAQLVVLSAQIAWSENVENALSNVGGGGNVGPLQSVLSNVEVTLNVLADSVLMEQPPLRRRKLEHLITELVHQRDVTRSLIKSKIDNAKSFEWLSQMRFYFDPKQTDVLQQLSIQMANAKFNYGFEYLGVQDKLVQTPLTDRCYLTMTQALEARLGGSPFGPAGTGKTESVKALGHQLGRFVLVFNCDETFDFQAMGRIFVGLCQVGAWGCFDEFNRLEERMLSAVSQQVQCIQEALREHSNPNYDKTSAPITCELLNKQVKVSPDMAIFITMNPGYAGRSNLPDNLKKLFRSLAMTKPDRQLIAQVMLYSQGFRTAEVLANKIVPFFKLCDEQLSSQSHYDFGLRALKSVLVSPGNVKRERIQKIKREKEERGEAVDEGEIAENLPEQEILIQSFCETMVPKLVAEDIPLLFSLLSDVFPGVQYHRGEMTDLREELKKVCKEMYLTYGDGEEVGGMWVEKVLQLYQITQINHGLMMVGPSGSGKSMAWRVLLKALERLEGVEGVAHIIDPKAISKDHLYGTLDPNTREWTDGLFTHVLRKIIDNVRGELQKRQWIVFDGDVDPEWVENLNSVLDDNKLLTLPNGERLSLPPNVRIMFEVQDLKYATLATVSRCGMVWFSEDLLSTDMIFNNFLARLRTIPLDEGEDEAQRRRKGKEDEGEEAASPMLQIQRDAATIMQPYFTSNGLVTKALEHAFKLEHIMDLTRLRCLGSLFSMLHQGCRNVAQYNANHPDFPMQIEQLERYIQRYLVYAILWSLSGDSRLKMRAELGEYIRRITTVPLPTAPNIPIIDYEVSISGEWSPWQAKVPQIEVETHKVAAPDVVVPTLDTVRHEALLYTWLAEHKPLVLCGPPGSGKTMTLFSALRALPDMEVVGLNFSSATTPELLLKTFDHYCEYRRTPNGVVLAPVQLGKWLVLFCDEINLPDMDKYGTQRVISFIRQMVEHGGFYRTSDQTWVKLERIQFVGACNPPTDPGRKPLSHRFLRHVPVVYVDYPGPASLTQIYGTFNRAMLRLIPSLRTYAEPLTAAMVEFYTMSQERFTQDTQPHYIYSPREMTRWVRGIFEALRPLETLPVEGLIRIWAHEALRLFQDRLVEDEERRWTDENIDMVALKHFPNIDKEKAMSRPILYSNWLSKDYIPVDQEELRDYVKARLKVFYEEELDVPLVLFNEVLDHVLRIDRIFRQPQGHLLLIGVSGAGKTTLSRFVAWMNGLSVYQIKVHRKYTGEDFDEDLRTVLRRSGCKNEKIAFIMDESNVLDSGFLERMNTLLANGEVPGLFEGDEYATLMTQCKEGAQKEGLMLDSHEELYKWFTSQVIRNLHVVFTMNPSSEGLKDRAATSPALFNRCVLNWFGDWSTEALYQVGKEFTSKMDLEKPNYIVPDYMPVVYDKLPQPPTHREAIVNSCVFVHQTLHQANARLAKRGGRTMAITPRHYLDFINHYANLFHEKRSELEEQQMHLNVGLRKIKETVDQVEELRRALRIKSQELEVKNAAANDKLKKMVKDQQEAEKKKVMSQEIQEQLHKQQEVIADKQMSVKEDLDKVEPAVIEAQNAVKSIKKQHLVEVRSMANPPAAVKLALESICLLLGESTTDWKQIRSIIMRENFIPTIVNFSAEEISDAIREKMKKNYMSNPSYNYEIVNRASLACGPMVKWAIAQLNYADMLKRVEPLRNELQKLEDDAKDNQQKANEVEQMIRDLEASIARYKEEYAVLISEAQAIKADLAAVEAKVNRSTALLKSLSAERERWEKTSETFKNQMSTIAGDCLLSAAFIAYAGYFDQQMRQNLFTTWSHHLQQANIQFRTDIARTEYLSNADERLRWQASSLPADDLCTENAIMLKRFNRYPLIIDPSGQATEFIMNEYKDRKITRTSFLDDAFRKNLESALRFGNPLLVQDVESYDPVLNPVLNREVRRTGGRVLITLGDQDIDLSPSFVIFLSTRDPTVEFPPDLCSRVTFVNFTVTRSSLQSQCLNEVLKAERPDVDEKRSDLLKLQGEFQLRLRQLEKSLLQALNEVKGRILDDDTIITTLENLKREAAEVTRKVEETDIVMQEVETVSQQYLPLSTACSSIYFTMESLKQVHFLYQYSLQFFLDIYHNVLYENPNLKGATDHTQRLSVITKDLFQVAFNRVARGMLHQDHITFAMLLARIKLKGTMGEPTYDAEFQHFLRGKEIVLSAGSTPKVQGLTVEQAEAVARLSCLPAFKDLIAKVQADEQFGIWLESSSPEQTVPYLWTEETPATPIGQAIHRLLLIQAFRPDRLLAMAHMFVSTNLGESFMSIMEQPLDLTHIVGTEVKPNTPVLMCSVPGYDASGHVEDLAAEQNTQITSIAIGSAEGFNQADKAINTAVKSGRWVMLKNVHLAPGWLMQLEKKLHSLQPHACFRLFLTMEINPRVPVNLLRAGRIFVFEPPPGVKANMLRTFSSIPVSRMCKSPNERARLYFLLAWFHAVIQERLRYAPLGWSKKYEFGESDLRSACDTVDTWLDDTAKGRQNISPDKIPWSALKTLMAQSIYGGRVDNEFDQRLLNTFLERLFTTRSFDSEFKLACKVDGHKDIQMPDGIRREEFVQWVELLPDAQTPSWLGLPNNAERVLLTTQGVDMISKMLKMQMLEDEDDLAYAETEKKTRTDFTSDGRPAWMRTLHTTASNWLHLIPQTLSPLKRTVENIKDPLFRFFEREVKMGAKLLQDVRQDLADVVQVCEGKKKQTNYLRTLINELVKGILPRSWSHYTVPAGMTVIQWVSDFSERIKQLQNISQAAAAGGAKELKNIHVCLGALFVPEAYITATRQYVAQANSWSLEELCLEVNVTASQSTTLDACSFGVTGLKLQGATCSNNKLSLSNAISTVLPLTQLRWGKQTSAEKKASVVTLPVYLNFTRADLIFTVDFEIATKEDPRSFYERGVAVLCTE

Structure (SMILES) | IC50 [µM]
NCCCOc1c(Br)cc(Br)cc1CC(N=O)C(=O)NCCc1ccc(Cl)cc1 (stereo unspecified) [3-[2-(3-aminopropoxy)-3,5-dibromophenyl]-N-[2-(4-chlorophenyl)ethyl]-2-hydroxyiminopropanamide hydrochloride] | > 50
NCCCOc1c(Cl)cc(Cl)cc1CC(N=O)C(=O)NCCc1c[nH]c2ccccc12 (stereo unspecified) [3-[2-(3-aminopropoxy)-3,5-dichlorophenyl]-2-hydroxyimino-N-[2-(1H-indol-3-yl)ethyl]propanamide hydrochloride] | > 50
NCCCOc1ccc(CC(N=O)C(=O)NCCc2c[nH]c3ccccc23)cc1Br (stereo unspecified) [3-[4-(3-aminopropoxy)-3-bromophenyl]-2-hydroxyimino-N-[2-(1H-indol-3-yl)ethyl]propanamide hydrochloride] | > 50

Further lines, results first:

IC50 [µM] | Structure (SMILES)
> 50 | NCCCOc1c(Br)cc(Br)cc1CC(N=O)C(=O)NCCc1c[nH]c2ccccc12 (stereo unspecified) [3-[2-(3-aminopropoxy)-3,5-dibromophenyl]-2-hydroxyimino-N-[2-(1H-indol-3-yl)ethyl]propanamide hydrochloride]
> 50 | NCCCOc1ccc(CC(N=O)C(=O)NCCc2ccc(Cl)cc2)cc1Br (stereo unspecified) [3-[4-(3-aminopropoxy)-3-bromophenyl]-N-[2-(4-chlorophenyl)ethyl]-2-hydroxyiminopropanamide hydrochloride]
> 50 | CCCCCCCCCCCCCC(=O)NCCCOc1c(Br)cc(CC(N=O)C(=O)NCCc2cnc(N)[nH]2)cc1Br (stereo unspecified) [Lipopurealin A]
